We go through four molecules from patent US8329645B2, “Polymyxin derivatives and uses thereof” (priority 2008, dated 2012).

Structures are written as SMILES.

The test system of assay [1] is E. coli IH3080. Put plainly: E-test MIC with or without NAB7061 (4 μg/ml), Mueller-Hinton agar. The class given is cell-based, Escherichia coli. The procedure: (§1) MICs were determined by using E-strips (Biodisk Ltd., Solna, Sweden) according to the manufacturer's instructions.
(§2) The strains originated from ATCC (11 strains), CCUG (11 strains), and NCTC (The National Collection of Type Cultures, Colindale, U.K.; 2 strains). Eight strains (the F-strains) were purchased from Mobidiag Ltd., Helsinki, Finland.

Assay [2] relates to E. coli ATCC25922. The note with it: E. coli ATCC25922. The procedure:
as §1, §2

For assay [3], the system named is K. pneumoniae ATCC13883. The note with it: K. pneumoniae ATCC13883. As to the method: as §1, §2
The test system of assay [4] is E. cloacae ATCC23355. Put plainly: E-test MIC with or without NAB7061 (4 μg/ml), Mueller-Hinton agar. Type of assay: cell-based, Enterobacter cloacae. As to the method: as §1, §2
In assay [5] the test system is E. coli (ATCC25922 and IH3080), K. pneumoniae ATCC13883, and E. cloacae ATCC23355. Put plainly: E-test sensitization by NAB7061, range over the tested strains. The class given is cell-based. The note with it: four tested strains. As to the method:
as §1

The test system of assay [6] is A. baumannii ATCC19606. The experiment in a line: E-test MIC of antibiotics on Mueller Hinton agar containing increasing concentrations of NAB739. The class given is cell-based, Acinetobacter baumannii.
The subject of assay [7] is A. baumannii F264. The assay is described as above. Type of assay: cell-based, Acinetobacter baumannii.
The subject of assay [8] is P. aeruginosa ATCC 27853. The description is as above. Type of assay: cell-based, Pseudomonas aeruginosa.
Assay [9] has as its system both Acinetobacter strains (ATCC 19606 and F264). The experiment in a line: E-test sensitization by NAB739, both strains. Type of assay: cell-based, Acinetobacter baumannii.

Consider `CC[C@H]1OC(=O)[C@H](C)[C@@H](O[C@H]2C[C@@](C)(OC)[C@@H](O)[C@H](C)O2)[C@H](C)[C@@H](O[C@@H]2O[C@H](C)C[C@H](N(C)C)[C@H]2O)[C@](C)(O)C[C@@H](C)CN(C)[C@H](C)[C@@H](O)[C@]1(C)O` [Azithromycin], for which the “Sensitization factor to antibiotic (MIC without / with 4 μg/ml of NAB 7061)” value in assay [1] is 31-94; in [2] it was 24-64; in assay [3], 31-43; in assay [4], 32. Besides, the “Sensitization factor to antibiotic at 4 μg/ml of NAB7061, range over the tested strains” value in assay [5] is reported as 31-94.

For the molecule `CC(=O)O[C@H]1C[C@@]2(C)[C@@H](C[C@@H](O)[C@H]3[C@@]4(C)CC[C@@H](O)[C@@H](C)[C@@H]4CC[C@@]32C)/C1=C(\CCC=C(C)C)C(=O)O` [Fusidic acid], the “Sensitization factor to antibiotic (MIC without / with 4 μg/ml of NAB 7061)” value in [1] is listed as over 43; in assay [2], over 43; in assay [3], over 4; in assay [4], over 8. Also, the “MIC of antibiotic in the presence of NAB739” value (“MIC of antibiotic” for short) in assay [6] (NAB 739 0 μg/ml) is over 256 µg/mL; in [6] (NAB 739 0.5 μg/ml) it was 4 µg/mL; in assay [6] (NAB 739 1 μg/ml) it was 1 µg/mL; in [7] (NAB 739 0 μg/ml), over 256 µg/mL; in assay [7] (NAB 739 0.5 μg/ml), 3 µg/mL; in [7] (NAB 739 1 μg/ml) it was 1 µg/mL. The “MIC of antibiotic” value in assay [8] (NAB 739 0 μg/ml) was over 256 µg/mL; in [8] (NAB 739 0.5 μg/ml) it was over 256 µg/mL; in [8] (NAB 739 1 μg/ml) it was over 256 µg/mL; in assay [8] (NAB 739 2 μg/ml) it was 192 µg/mL; in assay [8] (NAB 739 […]), over 256 µg/mL. The “sensitization factors to antibiotic at NAB739 0.5 μg/ml” value in assay [9] was 64-85.

Turning to `C/C(=C\C(=O)OCCCCCCCCC(=O)O)C[C@@H]1OC[C@H](C[C@@H]2O[C@H]2[C@@H](C)[C@H](C)O)[C@@H](O)[C@H]1O` [Mupirocin], the “Sensitization factor to antibiotic (MIC without / with 4 μg/ml of NAB 7061)” value in assay [1] was 64-85; in assay [2], 64-170; in [3], 24-32; in [4], 250-512. For the same molecule, in [5], the “Sensitization factor to antibiotic at 4 μg/ml of NAB7061, range over the tested strains” value is listed as 24-512.

As for `CN[C@H](CC(C)C)C(=O)N[C@H]1C(=O)N[C@@H](CC(N)=O)C(=O)N[C@H]2C(=O)N[C@H]3C(=O)N[C@H](C(=O)N[C@H](C(=O)O)c4cc(O)cc(O)c4-c4cc3ccc4O)[C@H](O)c3ccc(c(Cl)c3)Oc3cc2cc(c3O[C@@H]2O[C@H](CO)[C@@H](O)[C@H](O)[C@H]2O[C@H]2C[C@](C)(N)[C@H](O)[C@H](C)O2)Oc2ccc(cc2Cl)[C@H]1O` [Vancomycin], the “Sensitization factor to antibiotic (MIC without / with 4 μg/ml of NAB 7061)” value in assay [1] came to 2.5; in assay [2], 5; in [3] it was 1; in [4], 32. The “MIC of antibiotic” value in assay [6] (NAB 739 0 μg/ml) was over 256 µg/mL; in assay [6] (NAB 739 0.5 μg/ml), 3 µg/mL; in assay [6] (NAB 739 1 μg/ml), 1 µg/mL; in [7] (NAB 739 0 μg/ml), over 256 µg/mL; in assay [7] (NAB 739 0.5 μg/ml) it was 3 µg/mL; in assay [7] (NAB 739 1 μg/ml), 1 µg/mL. The “MIC of antibiotic” value in [8] (NAB 739 0 μg/ml), in assay [8] (NAB 739 0.5 μg/ml), in [8] (NAB 739 1 μg/ml), in [8] (NAB 739 2 μg/ml) and in assay [8] (NAB 739 […]) was over 256 µg/mL throughout. Besides, in assay [9], the “sensitization factors to antibiotic at NAB739 0.5 μg/ml” value was found to be 85.
